We go through one substance from patent US11339203B2, “Antitumor peptide and use thereof” (TOAGOSEI CO., LTD., priority 2018, dated 2022).

Where no end group is shown, it is not given here.

One series is described as follows: in vitro. The class given is cell-based, human. The note with it: human. Here is the method: (§1) CAKI2 cells were cultured and adjusted to cell count of about 5×10^3 cells per single well of 96-well plate. The amount of medium at this time was made to be 100 μL per well. Next, the 96-well plate was arranged in a CO2 incubator and incubated for about 1 day (21 hours to 24 hours) under conditions of 37° C. and 5% CO2. Subsequently, peptide-containing test media were respectively prepared for each concentration so that the concentration of each sample peptide targeted for evaluation was 12.5 μM and 25 μM followed by supplying to the wells in which the cells targeted for evaluation were cultured (namely, the wells following the above-mentioned incubation) so that the amount of media was 90 μL per well. The 96-well plate was then returned to CO2 incubator followed by incubating for 48 hours under conditions of 37° C. and 5% CO2. The number of wells (n) at each concentration in each peptide addition test group was set to 3. Thus, the values of the results indicated in the following table are the average values of the results respectively obtained for 3 test wells. Cell viability (%) was determined in the manner described below. […] Following completion of incubation, cell viability (%) was evaluated using a colorimetric method consisting of recovering the cell culture liquid containing the above-mentioned reagent together with measuring absorbance at wavelength of 450 nm based on reduction of tetrazolium salt (value corrected for absorbance at a wavelength of 650 nm: A450 to A650). More specifically, the cell viability (%) of each test cell line was calculated from the measured absorbance as a relative value based on cell viability of 100% for the measured value (measured absorbance) of the comparison test group that underwent incubation for 48 hours as described above in only medium not containing peptide. Antitumor activity was evaluated for Sample 2 in above-mentioned Test Example 1 targeted at multiple types of human-derived cultured tumor cells. […]

Series [1] relates to normal human mammary epithelial cells (MCF-12F). Nature of the series: in vitro. In kind it is cell-based. The note with it: each tumor cell line (CAKI2, PC-3, A2058, H2444, A549) versus MCF-12F; result in words. Here is the method:
as §1

Usually viability stands for a read-out of living cells in per cent, often relative to untreated cells. Read a high viability as better survival.

In “in vitro”, “FIGNLALSDLLAGVAYTANLLLKKRTLRKNDRKKR-NH2 [Sample 2]” came in with a viability at 48 h, 12.5 μM of 59.6% and a viability at 48 h, 25 μM of 13.8%. For the same substance, in series [1], the “antitumor activity against tumor cells in comparison with normal cells” value was “more potent antitumor activity”.
